Laboratory results taken from patent publication US20030232822A1, “Indole derivatives useful for the treatment of CNS disorders” (H. Lundbeck A/S, priority 2000, published 2003).
Where a name gives a salt, the structure may show the parent alone. Read-outs that look alike come from different tables or passages of the source.

Assays:
[1] = target: T1, human cloned dopamine D4.2 receptors (Homo sapiens, UniProt P21917, DEL265-296); test: Inhibition of the binding of [3H]YM-09151-2 to human dopamine D4.2 receptors; conditions: [3H]YM-09151-2 0.06 nM, membranes of CHO-cells; for D4-binding (% inhibition): at 50 nM
T1 construct: expressed in transfected cells; host or cells: CHO cells
T1 sequence (P21917 with tags, fused parts or gaps DEL265-296): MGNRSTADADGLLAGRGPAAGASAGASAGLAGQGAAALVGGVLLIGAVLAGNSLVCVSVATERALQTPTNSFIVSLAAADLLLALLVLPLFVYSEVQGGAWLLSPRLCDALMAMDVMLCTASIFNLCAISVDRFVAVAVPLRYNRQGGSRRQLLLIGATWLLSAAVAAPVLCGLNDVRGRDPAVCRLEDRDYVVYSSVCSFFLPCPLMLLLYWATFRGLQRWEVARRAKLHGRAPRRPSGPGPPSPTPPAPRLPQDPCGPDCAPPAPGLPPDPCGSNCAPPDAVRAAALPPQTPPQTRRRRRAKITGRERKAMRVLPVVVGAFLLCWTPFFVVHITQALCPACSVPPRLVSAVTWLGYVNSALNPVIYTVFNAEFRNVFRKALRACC
Description: Inhibition of the Binding of [^3H]YM-09151-2 to Human Dopamine D4.2 Receptors
By this method, the inhibition by drugs of the binding of [^3H]YM-09151-2 (0.06 nM) to membranes of human cloned dopamine D4.2 receptors expressed in CHO-cells is determined in vitro. Method modified from NEN Life Science Products, Inc., technical data certificate PC2533-10/96.

5-HT2A receptors = target: T2, 5-HT2A receptors (Rattus norvegicus, UniProt P14842); test: Inhibition of the binding of [3H]Ketanserin to 5-HT2A receptors; conditions: for 5-HT2A-binding (% inhibition): at 100 nM; for inhibition at 0.1 µM: read-out: 5-HT2A-binding (% inhibition)
T2 construct: membranes from rat brain (cortex) in vitro; from tissue; host or cells: rat brain cortex membranes
T2 sequence (P14842 whole entry): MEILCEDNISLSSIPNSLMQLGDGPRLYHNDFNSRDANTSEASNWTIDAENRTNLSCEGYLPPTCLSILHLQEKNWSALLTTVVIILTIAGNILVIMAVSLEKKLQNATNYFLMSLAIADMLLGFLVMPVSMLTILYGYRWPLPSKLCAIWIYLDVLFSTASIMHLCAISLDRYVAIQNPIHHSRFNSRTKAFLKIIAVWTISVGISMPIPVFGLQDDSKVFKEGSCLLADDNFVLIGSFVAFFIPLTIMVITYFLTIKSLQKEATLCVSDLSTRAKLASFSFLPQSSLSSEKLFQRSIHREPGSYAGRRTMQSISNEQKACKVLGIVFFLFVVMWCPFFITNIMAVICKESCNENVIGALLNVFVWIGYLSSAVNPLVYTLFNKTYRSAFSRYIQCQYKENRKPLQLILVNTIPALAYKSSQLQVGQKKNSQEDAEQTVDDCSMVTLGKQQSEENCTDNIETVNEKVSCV
Description: Inhibition of the Binding of [^3H]Ketanserin to 5-HT2A Receptors
The compounds were tested with respect to their affinity for 5-HT2A receptors by determining their ability to inhibit the binding of [^3H]Ketanserin (0.50 nM) to membranes from rat brain (cortex) in vitro. Method described in Sanchez et al. Drug Dev. Res. 1991, 22, 239-250.

dopamine D4 receptors = target: T3, dopamine D4 receptors (Homo sapiens, UniProt P21917); conditions: various in vitro efficacy assays, Gazi et al.; cited from earlier work
T3 sequence (P21917 1-419): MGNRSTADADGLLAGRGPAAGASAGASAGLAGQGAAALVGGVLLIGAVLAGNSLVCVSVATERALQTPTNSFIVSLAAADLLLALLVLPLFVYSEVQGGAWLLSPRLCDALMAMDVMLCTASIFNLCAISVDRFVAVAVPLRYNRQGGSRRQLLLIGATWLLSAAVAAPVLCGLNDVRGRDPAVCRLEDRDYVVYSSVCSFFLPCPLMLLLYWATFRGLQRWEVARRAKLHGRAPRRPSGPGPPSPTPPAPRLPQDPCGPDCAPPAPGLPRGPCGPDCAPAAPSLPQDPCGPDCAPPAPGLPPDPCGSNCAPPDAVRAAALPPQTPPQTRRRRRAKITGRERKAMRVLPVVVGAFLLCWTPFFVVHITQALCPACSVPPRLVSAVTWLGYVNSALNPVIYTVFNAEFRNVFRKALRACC

[2] = [3H]Ketanserin 0.50 nM, membranes from rat brain (cortex)
[3] = [3H]Ketanserin 0.50 nM, membranes from rat brain (cortex), read-out: 5-HT2A-binding (IC50)

Compound: O=C1c2ccccc2CCN1CCCCN1CCN(c2ccc3[nH]ccc3c2)CC1 [Compound 3c]
- D4-binding (% inhibition) [1]: 56% at 50 nM
- 5-HT2A-binding (% inhibition) (5-HT2A receptors; [2]): 93% at 100 nM

Compound: O=C1CCc2ccccc2N1CCCN1CCN(c2ccc3[nH]ccc3c2)CC1 [Compound 2a, 5-{4-[3-(2-Oxo-3,4-dihydro-2H-quinolin-1-yl)propan-1-yl]piperazin-1-yl}-1H-indole]
- IC50 [1]: 0.0032 µM
- IC50 (5-HT2A receptors; [3]): 0.013 µM

Compound: O=C1CCc2ccccc2N1CCCCN1CCN(c2ccc3cc[nH]c3c2)CC1 [Compound 2d, 6-{4-[4-(2-Oxo-3,4-dihydro-2H-quinolin-1-yl)butan-1-yl]piperazin-1-yl}-1H-indole]
- D4-binding (% inhibition) [1]: 58% at 50 nM
- inhibition at 0.1 µM (5-HT2A receptors): 46%

Compound: O=C1CCc2ccccc2N1CCCN1CC=C(c2ccc3[nH]ccc3c2)CC1 [Compound 2e, 5-{1-[3-(2-Oxo-3,4-dihydro-2H-quinolin-1-yl)propan-1-yl]-3,6-dihydro-2H-pyridin-4-yl}-1H-indole]
- IC50 [1]: 0.00097 µM
- IC50 (5-HT2A receptors): 0.0066 µM

Compound: O=C1COc2ccccc2N1CCCCN1CCN(c2ccc3[nH]ccc3c2)CC1 [Compound 3a, 5-{4-[4-(3-Oxo-3,4-dihydro-2H-1,4-benzoxazin-4-yl)butan-1-yl]piperazin-4-yl}-1H-indole]
- D4-binding (% inhibition) [1]: 56% at 50 nM
- 5-HT2A-binding (% inhibition) (5-HT2A receptors; [2]): 89% at 100 nM

Compound: O=C1CCc2ccccc2N1CCCN1CCN(c2ccc3cc[nH]c3c2)CC1 [Compound 2c]
- D4-binding (% inhibition) [1]: 94% at 50 nM
- IC50 (5-HT2A receptors; [3]): 0.032 µM

Compound: O=C1CCc2ccccc2N1CCCN1CCC(c2ccc3[nH]ccc3c2)CC1 [Compound 2f, 5-{1-[3-(2-Oxo-3,4-dihydro-2H-quinolin-1-yl)propan-1-yl]piperidin-4-yl}-1H-indole]
- IC50 [1]: 0.0016 µM
- IC50 (5-HT2A receptors; [3]): 0.022 µM

Compound: c1ccc2c(c1)CCCN2CCCN1CCN(c2ccc3[nH]ccc3c2)CC1 [Compound 4b, 5-{4-[3-(3,4-Dihydro-2H-quinolin-1-yl)propan-1-yl]piperazin-1-yl}-1H-indole]
- IC50 [1]: 0.0088 µM
- IC50 (5-HT2A receptors; [3]): 0.019 µM

Compound: O=C1CCc2ccccc2N1CCN1CCN(c2ccc3[nH]ccc3c2)CC1 [Compound 1, 5-{4-[2-(2-Oxo-3,4-dihydro-2H-quinolin-1-yl)ethyl]piperazin-1-yl}-1H-indole]
- D4-binding (% inhibition) [1]: 90% at 50 nM
- IC50 (5-HT2A receptors; [3]): 0.029 µM

Compound: O=C(CCN1CCN(c2ccc3[nH]ccc3c2)CC1)N1CCc2ccccc2C1 [Compound 5a, 5-{4-[3-(3,4-Dihydro-1H-isoquinolin-2-yl)-3-oxopropan-1-yl]piperazin-1-yl}-1H-indole]
- D4-binding (% inhibition) [1]: 73% at 50 nM
- inhibition at 0.1 µM (5-HT2A receptors): 29%

Compound: O=C(CCCN1CCN(c2ccc3[nH]ccc3c2)CC1)N1CCc2ccccc2C1 [Compound 5b, 5-{4-[4-(3,4-Dihydro-1H-isoquinolin-2-yl)-4-oxobutan-1-yl]piperazin-1-yl}-1H-indole]
- D4-binding (% inhibition) [1]: 81% at 50 nM
- IC50 (5-HT2A receptors; [3]): 0.004 µM
- melting point: 122 to 125 °C

Compound: c1ccc2c(c1)CCCN2CCCN1CCN(c2ccc3[nH]ccc3c2)CC1 [Compound 4a, 5-{4-[3-(3,4-Dihydro-2H-quinolin-1-yl)propan-1-yl]piperazin-1-yl}-1H-indole]
- IC50 [1]: 0.0026 µM
- IC50 (5-HT2A receptors; [3]): 0.027 µM

Compound: O=C1CCc2ccccc2N1CCCCN1CCN(c2ccc3[nH]ccc3c2)CC1 (as salt: hydrochloride) [Compound 2b, 5-{4-[4-(2-Oxo-3,4-dihydro-2H-quinolin-1-yl)butan-1-yl]piperazin-1-yl}-1H-indole]
- melting point: 233 to 236 °C

Compound: O=C1c2ccccc2CCN1CCCN1CCN(c2ccc3[nH]ccc3c2)CC1 [Compound 3b]
- D4-binding (% inhibition) [1]: 78% at 50 nM
- IC50 (5-HT2A receptors; [3]): 0.09 µM

Compound: O=C1CCc2ccccc2N1CCCCN1CCN(c2ccc3[nH]ccc3c2)CC1 [Compound 2b, 5-{4-[4-(2-Oxo-3,4-dihydro-2H-quinolin-1-yl)butan-1-yl]piperazin-1-yl}-1H-indole]
- IC50 [1]: 0.018 µM
- IC50 (5-HT2A receptors; [3]): 0.017 µM

Compound: CC(C)Oc1cccnc1N(C)C1CCN(Cc2ccccc2)CC1 [Compound U-101958]
- Functional activity at D4 receptor (literature) (dopamine D4 receptors): partial D4 receptor agonists
